Measurements as given in PubChem BioAssay (NCI).
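In this assay, cells in 96-well plates receive the compound at five concentrations for 48 hours. Endpoints are linearly interpolated between the surrounding concentrations. GI50 marks 50% less growth. TGI: concentration producing complete growth inhibition.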

Assays:
Experiment in all cases: inhibition of tumour cell growth, NCI panel, 48 h
786-0 renal = tested on: 786-0 renal
A498 renal = tested on: A498 renal
A549 NSCLC = tested on: A549 NSCLC
ACHN renal = tested on: ACHN renal
BT-549 breast = tested on: BT-549 breast
CAKI-1 renal = tested on: CAKI-1 renal
CCRF-CEM leukemia = tested on: CCRF-CEM leukemia
COLO 205 colon = tested on: COLO 205 colon
DU-145 prostate = tested on: DU-145 prostate
EKVX NSCLC = tested on: EKVX NSCLC
HCC-2998 colon = tested on: HCC-2998 colon
HCT-116 colon = tested on: HCT-116 colon
HCT-15 colon = tested on: HCT-15 colon
HL-60(TB) leukemia = tested on: HL-60(TB) leukemia
HOP-62 NSCLC = tested on: HOP-62 NSCLC
HOP-92 NSCLC = tested on: HOP-92 NSCLC
HS 578T breast = tested on: HS 578T breast
IGROV1 ovarian = tested on: IGROV1 ovarian
K-562 leukemia = tested on: K-562 leukemia
KM12 colon = tested on: KM12 colon
LOX IMVI melanoma = tested on: LOX IMVI melanoma
M14 melanoma = tested on: M14 melanoma
MCF7 breast = tested on: MCF7 breast
MDA-MB-231 breast = tested on: MDA-MB-231 breast
MOLT-4 leukemia = tested on: MOLT-4 leukemia
NCI-H226 lung = tested on: NCI-H226 lung
NCI-H23 lung = tested on: NCI-H23 lung
NCI-H460 lung = tested on: NCI-H460 lung
NCI-H522 lung = tested on: NCI-H522 lung
NCI/ADR-RES ovarian = tested on: NCI/ADR-RES ovarian
OVCAR-3 ovarian = tested on: OVCAR-3 ovarian
OVCAR-4 ovarian = tested on: OVCAR-4 ovarian
OVCAR-5 ovarian = tested on: OVCAR-5 ovarian
OVCAR-8 ovarian = tested on: OVCAR-8 ovarian
PC-3 prostate = tested on: PC-3 prostate
RPMI-8226 leukemia = tested on: RPMI-8226 leukemia
RXF 393 renal = tested on: RXF 393 renal
SF-268 CNS = tested on: SF-268 CNS
SF-295 CNS = tested on: SF-295 CNS
SF-539 CNS = tested on: SF-539 CNS
SK-MEL-2 melanoma = tested on: SK-MEL-2 melanoma
SK-MEL-28 melanoma = tested on: SK-MEL-28 melanoma
SK-MEL-5 melanoma = tested on: SK-MEL-5 melanoma
SK-OV-3 ovarian = tested on: SK-OV-3 ovarian
SN12C renal = tested on: SN12C renal
SNB-19 CNS = tested on: SNB-19 CNS
SR leukemia = tested on: SR leukemia
SW-620 colon = tested on: SW-620 colon
TK-10 renal = tested on: TK-10 renal
U251 CNS = tested on: U251 CNS
UACC-257 melanoma = tested on: UACC-257 melanoma
UACC-62 melanoma = tested on: UACC-62 melanoma
UO-31 renal = tested on: UO-31 renal

ClCc1ccc(-c2ccc(Cn3cnc4c(Cl)ncnc43)cc2)cc1
GI50 (786-0 renal): 1.62 µM
TGI (786-0 renal): 2.97 µM
GI50 (A498 renal): 20.5 µM
TGI (A498 renal): 37 µM
GI50 (A549 NSCLC): 4.31 µM
TGI (A549 NSCLC): 17.4 µM
GI50 (ACHN renal): 1.5 µM
TGI (ACHN renal): 2.89 µM
GI50 (BT-549 breast): 3.11 µM
TGI (BT-549 breast): > 100 µM
GI50 (CAKI-1 renal): 1.47 µM
TGI (CAKI-1 renal): 2.87 µM
GI50 (CCRF-CEM leukemia): 2.58 µM
TGI (CCRF-CEM leukemia): > 100 µM
GI50 (COLO 205 colon): 1.82 µM
TGI (COLO 205 colon): 4.27 µM
GI50 (DU-145 prostate): 1.49 µM
TGI (DU-145 prostate): 3.36 µM
GI50 (EKVX NSCLC): 2.98 µM
TGI (EKVX NSCLC): 12.9 µM
GI50 (HCC-2998 colon): 1.44 µM
TGI (HCC-2998 colon): 2.89 µM
GI50 (HCT-116 colon): 1.48 µM
TGI (HCT-116 colon): 2.79 µM
GI50 (HCT-15 colon): 1.9 µM
TGI (HCT-15 colon): 4.47 µM
GI50 (HL-60(TB) leukemia): 2.18 µM
TGI (HL-60(TB) leukemia): 5.59 µM
GI50 (HOP-62 NSCLC): 1.84 µM
TGI (HOP-62 NSCLC): 3.63 µM
GI50 (HOP-92 NSCLC): 2.02 µM
TGI (HOP-92 NSCLC): 25.2 µM
GI50 (HS 578T breast): 3.06 µM
TGI (HS 578T breast): > 100 µM
GI50 (IGROV1 ovarian): 3.59 µM
TGI (IGROV1 ovarian): 57.2 µM
GI50 (K-562 leukemia): 2.9 µM
TGI (K-562 leukemia): > 100 µM
GI50 (KM12 colon): 1.59 µM
TGI (KM12 colon): 3.56 µM
GI50 (LOX IMVI melanoma): 1.33 µM
TGI (LOX IMVI melanoma): 3.01 µM
GI50 (M14 melanoma): 2.69 µM
TGI (M14 melanoma): 11.8 µM
GI50 (MCF7 breast): 1.1 µM
TGI (MCF7 breast): 12.4 µM
GI50 (MDA-MB-231 breast): 1.77 µM
TGI (MDA-MB-231 breast): 3.73 µM
GI50 (MOLT-4 leukemia): 1.79 µM
TGI (MOLT-4 leukemia): > 100 µM
GI50 (NCI-H226 lung): 1.81 µM
TGI (NCI-H226 lung): 3.89 µM
GI50 (NCI-H23 lung): 1.84 µM
TGI (NCI-H23 lung): 3.65 µM
GI50 (NCI-H460 lung): 0.486 µM
TGI (NCI-H460 lung): 2.65 µM
GI50 (NCI-H522 lung): 4.01 µM
TGI (NCI-H522 lung): > 100 µM
GI50 (NCI/ADR-RES ovarian): 2.16 µM
TGI (NCI/ADR-RES ovarian): 4.7 µM
GI50 (OVCAR-3 ovarian): 1.83 µM
TGI (OVCAR-3 ovarian): 3.8 µM
GI50 (OVCAR-4 ovarian): 1.46 µM
TGI (OVCAR-4 ovarian): 4.28 µM
GI50 (OVCAR-5 ovarian): 2.31 µM
TGI (OVCAR-5 ovarian): 6.01 µM
GI50 (OVCAR-8 ovarian): 2.8 µM
TGI (OVCAR-8 ovarian): 8.95 µM
GI50 (PC-3 prostate): 2.8 µM
TGI (PC-3 prostate): 9.92 µM
GI50 (RPMI-8226 leukemia): 2.05 µM
TGI (RPMI-8226 leukemia): 4.87 µM
GI50 (RXF 393 renal): 1.88 µM
TGI (RXF 393 renal): 4.51 µM
GI50 (SF-268 CNS): 1.13 µM
TGI (SF-268 CNS): 3.51 µM
GI50 (SF-295 CNS): 1.92 µM
TGI (SF-295 CNS): 4.89 µM
GI50 (SF-539 CNS): 1.52 µM
TGI (SF-539 CNS): 3.14 µM
GI50 (SK-MEL-2 melanoma): 3.7 µM
TGI (SK-MEL-2 melanoma): > 100 µM
GI50 (SK-MEL-28 melanoma): 2.49 µM
TGI (SK-MEL-28 melanoma): 7.79 µM
GI50 (SK-MEL-5 melanoma): 2.49 µM
TGI (SK-MEL-5 melanoma): 7.17 µM
GI50 (SK-OV-3 ovarian): 1.98 µM
TGI (SK-OV-3 ovarian): 6.14 µM
GI50 (SN12C renal): 1.64 µM
TGI (SN12C renal): 3.69 µM
GI50 (SNB-19 CNS): 2.59 µM
TGI (SNB-19 CNS): 8.1 µM
GI50 (SR leukemia): 2.51 µM
TGI (SR leukemia): > 100 µM
GI50 (SW-620 colon): 2.43 µM
TGI (SW-620 colon): 6.63 µM
GI50 (TK-10 renal): 1.65 µM
TGI (TK-10 renal): 3.58 µM
GI50 (U251 CNS): 1.81 µM
TGI (U251 CNS): 3.95 µM
GI50 (UACC-257 melanoma): 3.76 µM
TGI (UACC-257 melanoma): 24.7 µM
GI50 (UACC-62 melanoma): 1.58 µM
TGI (UACC-62 melanoma): 3.44 µM
GI50 (UO-31 renal): 2.29 µM
TGI (UO-31 renal): 5.21 µM
